Results from PubChem BioAssay AID1845199 (Molecular Pharmacology Branch, DTP, NCI, 2023).

Tested on: 556581-035-R-J1 tumor spheroid viability, % test/control
Experiment: Anticancer human tumor 556581-035-R-J1 patient-derived ovarian carcinoma cell line growth inhibition
Settings: spheroids with HUVEC and MSC; for IC50: curve of first compound; for viability, T/C: stronger effect = lower value; active = viability on the fitted dose curve at most 10% of control; inactive = the rest
In short: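 Single agents and combinations were tested on spheroids built from tumor cells plus HUVEC and hMSC, at half-log dilutions starting at or near clinical Cmax, else 10 microM; final DMSO 0.25% (v/v).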

[1] = second compound 0.003 µM, first compound 0.0316 µM
[2] = second compound 0.003 µM, first compound 0.1 µM
[3] = second compound 0.003 µM, first compound 0.316 µM
[4] = second compound 0.003 µM, first compound 1 µM
[5] = second compound 0.003 µM, first compound 3.16 µM
[6] = second compound 0.003 µM, first compound 10 µM
[7] = second compound 0.00949 µM, first compound 0.0316 µM
[8] = second compound 0.00949 µM, first compound 0.1 µM
[9] = second compound 0.00949 µM, first compound 0.316 µM
[10] = second compound 0.00949 µM, first compound 1 µM
[11] = second compound 0.00949 µM, first compound 3.16 µM
[12] = second compound 0.00949 µM, first compound 10 µM
[13] = second compound 0.03 µM, first compound 0.0316 µM
[14] = second compound 0.03 µM, first compound 0.1 µM
[15] = second compound 0.03 µM, first compound 0.316 µM
[16] = second compound 0.03 µM, first compound 1 µM
[17] = second compound 0.03 µM, first compound 3.16 µM
[18] = second compound 0.03 µM, first compound 10 µM
[19] = second compound 0.0949 µM, first compound 0.0316 µM
[20] = second compound 0.0949 µM, first compound 0.1 µM
[21] = second compound 0.0949 µM, first compound 0.316 µM
[22] = second compound 0.0949 µM, first compound 1 µM
[23] = second compound 0.0949 µM, first compound 3.16 µM
[24] = second compound 0.0949 µM, first compound 10 µM
[25] = second compound 0.3 µM, first compound 0.0316 µM
[26] = second compound 0.3 µM, first compound 0.1 µM
[27] = second compound 0.3 µM, first compound 0.316 µM
[28] = second compound 0.3 µM, first compound 1 µM
[29] = second compound 0.3 µM, first compound 3.16 µM
[30] = second compound 0.3 µM, first compound 10 µM
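Note: spheroids exposed to compounds for 7 days before viability read.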

CC(C)n1c(=O)n(C)c2cnc3cc(F)c(-c4ccc(OCCCN5CCCCC5)nc4)cc3c21 + CC[C@@]1(O)C(=O)OCc2c1cc1n(c2=O)Cc2cc3c(CN(C)C)c(O)ccc3nc2-1
3.37 µM: IC50 (second compound 0.0949 µM)
inactive: viability, T/C [1] 84.2% | viability, T/C [2] 85.9% | viability, T/C [3] 80.6% | viability, T/C [4] 82.4% | viability, T/C [5] 62% | viability, T/C [6] 60.6% | viability, T/C [7] 81.9% | viability, T/C [8] 76.4% | viability, T/C [9] 77.6% | viability, T/C [10] 77% | viability, T/C [11] 72.7% | viability, T/C [12] 58.9% | viability, T/C [13] 75% | viability, T/C [14] 73.5% | viability, T/C [15] 71% | viability, T/C [16] 72.1% | viability, T/C [17] 66.5% | viability, T/C [18] 54.5% | viability, T/C [19] 49.7% | viability, T/C [20] 51.4% | viability, T/C [21] 51.7% | viability, T/C [22] 55.3% | viability, T/C [23] 50.3% | viability, T/C [24] 36.8% | viability, T/C [25] 12.3% | viability, T/C [26] 12.5% | viability, T/C [27] 13.1% | viability, T/C [28] 13.6% | viability, T/C [29] 12.1% | viability, T/C [30] 11.6%
< 0.0316 µM: IC50 (second compound 0.3 µM)
> 10 µM: IC50 (second compound 0.003 µM) | IC50 (second compound 0.00949 µM) | IC50 (second compound 0.03 µM)

COc1ccc([C@@H](O)c2cc(-c3ncnc4cc(N5CCOCC5)ccc34)c(F)cc2Cl)nn1 + CC[C@@]1(O)C(=O)OCc2c1cc1n(c2=O)Cc2cc3c(CN(C)C)c(O)ccc3nc2-1
inactive: viability, T/C [1] 99.8% | viability, T/C [2] 99.8% | viability, T/C [3] 83.4% | viability, T/C [4] 63.7% | viability, T/C [5] 40.5% | viability, T/C [6] 31% | viability, T/C [7] 85% | viability, T/C [8] 86.9% | viability, T/C [9] 75.3% | viability, T/C [10] 57.8% | viability, T/C [11] 37.8% | viability, T/C [12] 31.2% | viability, T/C [13] 70.9% | viability, T/C [14] 64% | viability, T/C [15] 62.9% | viability, T/C [16] 46.6% | viability, T/C [17] 33.7% | viability, T/C [18] 29.5% | viability, T/C [19] 48.6% | viability, T/C [20] 47.6% | viability, T/C [21] 50.5% | viability, T/C [22] 41.8% | viability, T/C [23] 30.8% | viability, T/C [24] 25.5% | viability, T/C [25] 13.7% | viability, T/C [26] 11.9% | viability, T/C [27] 11.6% | viability, T/C [28] 13.2% | viability, T/C [29] 17.4% | viability, T/C [30] 18.5%
< 0.0316 µM: IC50 (second compound 0.0949 µM) | IC50 (second compound 0.3 µM)
1.54 µM: IC50 (second compound 0.00949 µM)
1.96 µM: IC50 (second compound 0.003 µM)
0.785 µM: IC50 (second compound 0.03 µM)

O=C(c1cc(Cc2n[nH]c(=O)c3ccccc23)ccc1F)N1CCN(C(=O)C2CC2)CC1 + COc1cc2c(cc1O)CCNC21CSC2c3c(OC(C)=O)c(C)c4c(c3C(COC1=O)N1C(O)C3Cc5cc(C)c(OC)c(O)c5C(C21)N3C)OCO4
< 0.0949 µM: IC50 (second compound 0.000949 µM) | IC50 (second compound 0.003 µM)
inactive: viability, T/C (second compound 30 pM, first compound 0.0949 µM) 104% | viability, T/C (second compound 30 pM, first compound 0.3 µM) 105% | viability, T/C (second compound 30 pM, first compound 0.949 µM) 103% | viability, T/C (second compound 30 pM, first compound 3 µM) 93.7% | viability, T/C (second compound 30 pM, first compound 9.49 µM) 79.7% | viability, T/C (second compound 30 pM, first compound 30 µM) 63.5% | viability, T/C (second compound 94.9 pM, first compound 0.0949 µM) 98.1% | viability, T/C (second compound 94.9 pM, first compound 0.3 µM) 103% | viability, T/C (second compound 94.9 pM, first compound 0.949 µM) 96.2% | viability, T/C (second compound 94.9 pM, first compound 3 µM) 90% | viability, T/C (second compound 94.9 pM, first compound 9.49 µM) 75.6% | viability, T/C (second compound 94.9 pM, first compound 30 µM) 63% | viability, T/C (second compound 0.0003 µM, first compound 0.0949 µM) 89.5% | viability, T/C (second compound 0.0003 µM, first compound 0.3 µM) 88.7% | viability, T/C (second compound 0.0003 µM, first compound 0.949 µM) 88.6% | viability, T/C (second compound 0.0003 µM, first compound 3 µM) 87.2% | viability, T/C (second compound 0.0003 µM, first compound 9.49 µM) 66.8% | viability, T/C (second compound 0.0003 µM, first compound 30 µM) 50.1% | viability, T/C (second compound 0.000949 µM, first compound 0.0949 µM) 35% | viability, T/C (second compound 0.000949 µM, first compound 0.3 µM) 27.9% | viability, T/C (second compound 0.000949 µM, first compound 0.949 µM) 27.9% | viability, T/C (second compound 0.000949 µM, first compound 3 µM) 23.4% | viability, T/C (second compound 0.000949 µM, first compound 9.49 µM) 7.48%
> 30 µM: IC50 (second compound 30 pM) | IC50 (second compound 94.9 pM) | IC50 (second compound 0.0003 µM)
active: viability, T/C (second compound 0.000949 µM, first compound 30 µM) 1.51% | viability, T/C (second compound 0.003 µM, first compound 0.0949 µM) 0.86% | viability, T/C (second compound 0.003 µM, first compound 0.3 µM) 0.88% | viability, T/C (second compound 0.003 µM, first compound 0.949 µM) 0.88% | viability, T/C (second compound 0.003 µM, first compound 3 µM) 1.14% | viability, T/C (second compound 0.003 µM, first compound 9.49 µM) 1.42% | viability, T/C (second compound 0.003 µM, first compound 30 µM) 2.1%
